Laboratory results from patent publication US10046050B2, “Targeting immunotherapy for amyloidosis” (UNIVERSITY OF TENNESSEE RESEARCH FOUNDATION, priority 2014, dated 2018).

Key:
[1] = system: synthetic amyloid fibrils composed of rVλ6Wil (AL fibrils); assay: EuLISA of murine 11-1F4 on synthetic amyloid fibrils with or without p66; assay type: binding; conditions: p66 added to fibril-coated wells
Protocol: To assess the interaction of 11-1F4 with synthetic amyloid fibrils, we evaluated the interaction of murine 11-1F4 with synthetic amyloid fibrils composed of the λ6 light chain Wil-associated with light chain (AL) amyloidosis, or Aβ(1-40), associated with Alzheimer's disease and cerebral amyloid angiopathy. More particularly, Costar high binding plates were coated with 50 μl per well of […] of synthetic amyloid fibrils composed of rVλ6Wil (AL fibrils) or Aβ(1-40) overnight at 37° C. The plates were washed with 1× solution of phosphate buffered saline with 0.05% (v/v) tween 20 (PBST)—similar wash steps were performed between each step. As a “blocking step” the plates were incubated for 1 h at 37° C. with 200 μl of 1% (w/v) BSA in PBS per well. The murine 11-1F4 mAb was added from 100 nM (in BSAT), as a starting concentration, and diluted 1:2 across the microplate and incubation for 1 h at 37° C. Biotinylated goat anti-mouse secondary antibodies (Sigma) were used at a 1:3000 dilution in BSAT. Europium-conjugated streptavidin (Perkin Elmer) was added (1:1000 dilution of stock) as a detection medium and the plate incubated for 1 h 37° C. […] was quantified following addition of enhancement solution (Perkin Elmer) and the time-resolved fluorescence measured using a Victor 3 Wallac plate reader (Perkin Elmer).

healthy tissues = assay: In vivo ^125I-p66 in healthy WT mice (microautoradiography); conditions: autoradiography
Protocol: Imaging was performed using WT or AA amyloid mice (n=3) that were injected with ˜5 μg of ^125I-p66, 125 μCi in the lateral tail vein. After the appropriate uptake time (data for 4 and 72 h pi shown), mice were euthanized by isoflurane inhalation overdose. SPECT images were acquired using an Inveon trimodality imaging platform (Siemens Preclinical Solution, Knoxville, Tenn.) running Inveon Acquisition Workplace software (ver. 2.0). Low energy (^125I; 25-45 keV) gamma photons were acquired at each of 60, 16-sec projections with 90 mm of bed travel. A 1 mm-diameter, 5-pinhole (Mouse Whole Body) collimator was used at 30 mm from the center of the field of view. Data were reconstructed post hoc onto an 88×88×312 matrix with isotropic 0.50 mm voxels using a 3D ordered subset expectation maximization (OSEM) algorithm (8 iterations; 6 subsets).
For autoradiography, 6-μm-thick sections were cut from formalin-fixed, paraffin-embedded blocks, containing tissues from mice that had received […]. The sections were placed on Plus microscope slides (Fisher Scientific), dipped in NTB-2 emulsion (Eastman Kodak), stored in the dark, and developed after a 4 day exposure. Each section was counterstained with hematoxylin and eosin.
All tissue sections were examined using a Leica DM500 light microscope fitted with cross-polarizing filters (for Congo red). […]

human ATTR amyloid = assay: Immunohistochemistry of biotinyl-7D8 on formalin-fixed tissue sections; assay type: binding; conditions: label = pre-treatment peptide, or 7D8 alone
Protocol: (§1) The binding of biotinylated 7D8 mAb with autopsy-derived, formalin-fixed, paraffin-embedded tissue sections containing, ATTR, ALκ or ALλ was assessed immunohistochemically. Consecutive tissue sections were stained with: Congo red; biotinylated 7D8 alone; 7D8 with the control peptide p5; or, 7D8 mAb with peptope p75 pretreatment. Briefly, six μm-thick tissue sections were subjected to antigen retrieval by incubation in CitraPlus solution (BioGenex, San Ramon, Calif.) for 30 min at 90° C. Unlabeled peptope p75 was added to the tissue at ˜3 μg/mL and incubated overnight at 4° C. Unbound reagent was removed by washing in PBST for 30 min. Tissues sections (with or without peptope pretreatment) were immunostained by addition of 3 μg/mL biotinylated 7D8 mAb. Slides were developed by addition of streptavidin-HRP (Vectastain Elite ABC kit, Vector Labs) followed by 3,3′-diaminobezidene (Vector Labs) and examined using a Leica DM500 microscope.

human Den ALλ amyloid = assay: as above; assay type: binding; conditions: thyroid, label = pre-treatment peptide, or 7D8 alone
Protocol: as §1

human Tal ALκ amyloid = assay: as above; assay type: binding; conditions: kidney, label = pre-treatment peptide, or 7D8 alone
Protocol: as §1

[2] = system: RAW 264.7 murine macrophages; assay: Phagocytosis assay of pHrodo green-labeled human ATTR extract; assay type: cell-based; conditions: 80 min
Protocol: The phagocytosis of human cardiac ATTR extract induced by peptope and 7D8 was studied using a pH-sensitive fluorescence enhancement assay. The RAW 264.7 murine macrophages (1×10^6 cells per well) were plated into the wells of a 12-well culture dish, containing a glass coverslip, and incubated at 37° C. overnight. On the day of the experiment, 10 μg of pHrodo green-labeled human ATTR extract was mixed with 4 μg of p75 peptide or, as a negative control, an equal volume of PBS (pHrodo green [Thermofisher, Molecular Probes] is a pH sensitive dye that is only fluorescent at pH 4, i.e. in a acidified macrophage endosome/lysosome). The sample was incubated for 30 min. Unbound p75 peptide was removed by washing twice, by centrifugation at 10,000×g using PBS. The 7D8 and MOPC mAb solutions (MOPC served as a negative isotype control) were centrifuged at 10,000×g to remove particulates before adding 10 μg to the peptide-coated ATTR extract. The samples were incubated for 1 h before being washed by centrifugation as above, before being added to the wells of the microplate. The cells were incubated with the amyloid extract for 80 min, at which time Hoescht dye (Thermofisher) was added to the well (to stain the cell nuclei blue), and the mixture incubated for a further 10 min. The coverslips were then washed and mounted on a slide for epifluorescent microscopy and digital image acquisition using blue (nuclei) and green (phagocytosed amyloid) fluorescent filters. Images (original magnification 160×) were analyzed digitally and the area of green fluorescence per cell (“phagocytosis index”) was calculated using 3 or 4 digital images acquired from each coverslip. Approximately 2000 cells were analyzed for each sample.

Substance | reactivity of the 11-1F4 mAb with fibrils when p66 was added [1] | binding of radiolabeled peptide to healthy tissues in vivo (healthy tissues) | immunohistochemical staining with biotinyl-7D8 (human ATTR amyloid; Gre ATTR, esophagus) | immunohistochemical staining with biotinyl-7D8 (human ATTR amyloid; Gre ATTR, heart) | immunohistochemical staining with biotinyl-7D8 (human ATTR amyloid; Gre ATTR, nerve) | immunohistochemical staining with biotinyl-7D8 (human ATTR amyloid; Gre ATTR, small bowel) | immunohistochemical staining with biotinyl-7D8 (human ATTR amyloid; Ken ATTR, heart) | immunohistochemical staining with biotinyl-7D8 (human ATTR amyloid; Sno ATTR, heart) | immunohistochemical staining with biotinyl-7D8 (human Den ALλ amyloid) | immunohistochemical staining with biotinyl-7D8 (human Tal ALκ amyloid) | phagocytosis index (area of green fluorescence per cell), 25% Percentile [2] | phagocytosis index (area of green fluorescence per cell), 75% Percentile [2] | phagocytosis index (area of green fluorescence per cell), Maximum [2] | phagocytosis index (area of green fluorescence per cell), Mean [2] | phagocytosis index (area of green fluorescence per cell), Median [2] | phagocytosis index (area of green fluorescence per cell), Minimum [2]
KAQKAQAKQAKQAQKAQKAQAKQAKQAQKAQKAQAKQAKQ SVTVVT KHYAAFPENLLI [p66] | enhanced | did not bind to any tissue that was studied | – | – | – | – | – | – | – | – | – | – | – | – | – | –
KAQKAQAKQAKQAQKAQKAQAKQAKQAQHEDT [p75, KAQKAQAKQAKQAQKAQKAQAKQAKQAQHEDT] | – | – | Specific positive staining | Specific positive staining | Specific positive staining | Specific positive staining | Specific positive staining | Specific positive staining | Specific positive staining | Specific positive staining | 0.5842 | 2.603 | 2.603 | 1.367 | 0.9137 | 0.5842
